Experimental data from PMC9147975, “New Antibacterial Chloro-Containing Polyketides from the Alga-Derived Fungus Asteromyces cruciatus KMM 4696” (Journal of Fungi, 2022).
“Also recorded” adds a separate entry of the source.

Key:
[1] = biological target: T1, sortase A from Staphylococcus aureus (Staphylococcus aureus, UniProt Q2FV99); assay: Sortase activity inhibition assay (SensoLyte 520 Sortase A Activity Assay Kit); type: biochemical; conditions: 50 μM; for effect on sortase A enzymatic activity (in words) / decrease of sortase A activity: after 10 min of incubation with the substrate
T1 construct: purchased AnaSpec AS-72229
T1 sequence (Q2FV99 whole entry): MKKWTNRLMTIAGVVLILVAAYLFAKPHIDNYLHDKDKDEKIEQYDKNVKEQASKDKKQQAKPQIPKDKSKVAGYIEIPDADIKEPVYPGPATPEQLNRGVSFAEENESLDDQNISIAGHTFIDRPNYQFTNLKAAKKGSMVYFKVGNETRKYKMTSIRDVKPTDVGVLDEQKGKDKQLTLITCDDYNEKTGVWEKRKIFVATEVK
Method: The enzymatic activity of sortase A from Staphylococcus aureus was determined using SensoLyte 520 Sortase A Activity Assay Kit * Fluorimetric * (AnaSpec AS-72229, AnaSpec, San Jose, CA, USA) in accordance with the manufacturer’s instructions. […] DMSO at a concentration of 0.8% was used as a control. PCMB (4-(hydroxymercuri)benzoic acid) was used as sortase A enzyme activity inhibitor. Fluorescence was measured with a plate reader PHERAStar FS (BMG Labtech, Offenburg, Germany) for 60 min, with a time interval of 5 min. The data were processed with MARS Data Analysis v. 3.01R2 (BMG Labtech, Offenburg, Germany). The results were presented as relative fluorescent units (RFUs) and percentage of the control data, calculated using STATISTICA 10.0 software.

[2] = tested on: Staphylococcus aureus ATCC 21027; assay: Antimicrobial activity, bacterial growth (OD620); type: cell-based; conditions: for inhibition at 100 µM: read-out: inhibition of S. aureus growth; for change of antimicrobial activity on decrease of concentration: decrease of concentration from 100 μM (two-fold for compound 6)
Method: The antibacterial activity of compounds 1–6 was evaluated as described previously. The bacterial culture of Staphylococcus aureus ATCC 21027 (Collection of Marine Microorganisms PIBOC FEBRAS) was cultured in a Petri dish at 37 °C for 24 h on solid medium Mueller Hinton broth with agar—16.0 g/L. The assays were performed in 96-well microplates in appropriate Mueller Hinton broth. Each well contained 90 µL of bacterial suspension (10^9 CFU/mL). Then, 10 µL diluted at concentrations from 1.5 µM to 100.0 µM using two-fold dilution was added to compounds 1–6 (DMSO concentration < 1%). Culture plates were incubated overnight at 37 °C, and the OD620 was measured using a Multiskan Spectrum spectrophotometer (Thermo Labsystems Inc., Beverly, MA, USA). Gentamicin was used as a positive control in concentration 1 mg/mL; 1% DMSO solution in PBS as a negative.

[3] = tested on: biofilm formation of Staphylococcus aureus; assay: Biofilm formation, crystal violet biofilm assay; type: cell-based; conditions: for inhibition at 100 µM: Staphylococcus aureus; for formation of biofilms (in words): 100 μM
Method: The inhibition of the reducing biofilm formation and growth was assessed using the crystal violet biofilm assay as described. Mueller Hinton broth was inoculated with 10^9 CFU/mL of S. aureus overnight cultures. A total of 90 µL of this cell suspension was then dispensed into 96-well microtiter plates containing 10 µL of different concentrations of compounds 1–6. After 24 h growth at 37 °C the plates were washed with PBS to remove unbound cells. Next, the wells were stained with 0.1% crystal violet solution for 10 min at 37 °C. At the completion of the incubation, plates were washed 3 times with PBS and dried. Then, the crystal violet dye from the biofilm was solubilized with 100 µL of ethanol. A total of 100 µL of this solution was then moved to a new microtiter plate for absorbance measurement at λ = 570 nm. The results were reported as percent inhibition normalized to the wild-type control.

[4] = tested on: human keratinocytes HaCaT co-cultivated with S. aureus; assay: Co-cultivation of HaCaT cells with S. aureus, LDH release; type: cell-based; conditions: 10 μM, 48 h co-cultivation
Method: Co-cultivation of HaCaT cells with S. aureus was carried out as described. HaCaT cells at a concentration of 1.5×10^4 cells per well were seeded in 96-well plates for 24 h. Then, culture medium in each well was changed with S. aureus suspension (10^2 CFU/mL) in full DMEM medium. Fresh DMEM medium without S. aureus suspension was added in other wells as needed. Compounds 1–6 at a concentration of 10 μM were added in wells after 1 h. HaCaT cells and S. aureus were cultured at 37 °C in a humidified atmosphere with 5% (v/v) CO2 for 48 h. After incubation, the plate was centrifuged at 250× g for 10 min and 50 µL of supernatant from each well was transferred into the corresponding wells of an optically clear 96-well plate. An equal volume of the reaction mixture (50 µL) from LDH Cytotoxicity Assay Kit (Abcam, Cambridge, UK) was added to each well and incubated for up to 30 min at room temperature. The absorbance of all samples was measured at λ = 450 nm using a Multiskan FC microplate photometer (Thermo Scientific, Waltham, MA, USA) and expressed in optical units (o.u.).

[5] = biological target: T1, sortase A from Staphylococcus aureus; conditions: cited from earlier work
[6] = tested on: Staphylococcus aureus ATCC 21027; design: method as in PMID 34677452; conditions: cited from earlier work
[7] = tested on: biofilm formation of Staphylococcus aureus; design: method as in PMID 34677452; conditions: cited from earlier work
[8] = tested on: human keratinocytes HaCaT co-cultivated with S. aureus; design: method as in PMID 34677452; conditions: cited from earlier work
[9] = Staphylococcus aureus, ATCC21027, 100 μM

C=C(C)C#C[C@@H]1C[C@H](O)[C@H](Cl)[C@@H](O)[C@H]1O (relative stereo) [Compound 2, Acrucipentyn B]
effect on sortase A enzymatic activity (in words) [1]: inactive; also recorded: did not have any effect
inhibition at 100 µM [2, 9]: ≤ 50%
effect on biofilm formation, comparison in words [3]: did not show a significant effect
inhibition at 100 µM [3]: 30%
effect on LDH release (in words) [4]: greatest effect; also recorded: significant activity

C=C(C)C#C[C@@H]1C[C@H](O)[C@H](O)[C@@H](Cl)[C@@H]1O (relative stereo) [Compound 3, Acrucipentyn C]
time-dependent inhibitory effect on sortase A activity ([1]; 60 min data acquisition): detected throughout the entire period of data acquisition
decrease of sortase A activity [1]: 30%
inhibition at 100 µM [2, 9]: 50%
change of antimicrobial activity on decrease of concentration [2]: two-fold decrease in activity
concentration down to which a high level of inhibition of biofilm formation is kept [3]: 12.5 µM
formation of biofilms (in words) [3]: almost absent

C=C(C)C#CC1=C[C@@H](O)[C@@H](Cl)[C@H](O)[C@@H]1O (relative stereo) [Compound 4, Acrucipentyn D]
effect on sortase A enzymatic activity (in words) [1]: less significant effects
inhibition at 100 µM [2, 9]: ≤ 50%
formation of biofilms (in words) [3]: almost absent
change of effect on biofilm formation when diluted twice ([3]; diluted twice from 100 μM): halved
effect on LDH release (in words) [4]: greatest effect; also recorded: significant activity

C=C(C)C#CC1=C[C@@H](O)[C@H](O)[C@@H](Cl)[C@@H]1O (relative stereo) [Compound 5, Acrucipentyn E]
decrease of sortase A activity [1]: 21%
inhibition at 100 µM [2, 9]: ≤ 50%
effect on biofilm formation, comparison in words [3]: weaker inhibitory effect
inhibition at 100 µM [3]: 30%
effect on LDH release (in words) [4]: greatest effect

C=C(C)C#C[C@@H]1C[C@@H](O)[C@@H](Cl)[C@H](O)[C@@H]1O [Compound 1, Acrucipentyn A]
decrease of sortase A activity [1]: 18%
antimicrobial effect against S. aureus, ranking in words [2]: most pronounced antimicrobial effects
inhibition at 12.5 µM ([2]; Staphylococcus aureus, ATCC21027, 12.5 μM, read-out: antimicrobial activity (inhibition of S. aureus growth)): ≤ 50%
inhibition at 100 µM [2, 9]: 60%
inhibition of biofilm formation ([3]; concentrations of 12.5–100 μM, respectively): 50–70%
effect on LDH release (in words) [4]: greatest effect

C=C(C)C#CC1=C[C@@H](O)[C@@H]2O[C@@H]2[C@@H]1O (relative stereo) [Compound 6, Acrucipentyn F]
effect on sortase A enzymatic activity (in words) [1]: less significant effects
antimicrobial effect against S. aureus, ranking in words [2]: most pronounced antimicrobial effects
inhibition of S. aureus growth (in words) ([2]; 100 μM): almost completely inhibited
change of antimicrobial activity on decrease of concentration [2]: halved
concentration down to which a high level of inhibition of biofilm formation is kept [3]: 25 µM
formation of biofilms (in words) [3]: almost absent

flavuside B
sortase A enzymatic activity (in words) [5]: inhibitor of sortase A enzymatic activity
S. aureus growth (in words) [6]: able to inhibit
S. aureus biofilm formation (in words) [7]: able to inhibit
protection of HaCaT keratinocytes in co-culture model (in words) [8]: protect HaCaT keratinocytes against S. aureus infection
